Drawing on the supplement of paper PMC8024199, this text covers drug sensitivity score for 39 molecules.

Structures are written as SMILES. ± gives the standard deviation of the averaged measurements.

Holding throughout (assay): drug sensitivity score (DSS) (DSS score); higher = more sensitive (stronger growth inhibition); extreme values may be limits of the assay
Assay [1] deals with Ba/F3 P210-BCR-ABL1 RUNX1-/mut (mouse). Put shortly: (§1)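 Each value is a drug sensitivity score derived from CellTiter-Glo luminescence scaled between vehicle and positive-control wells. Mouse Ba/F3 clones, CRISPR/Cas9-edited at a target exon or edited controls, were seeded at 10,000 cells per well in RPMI with 10% FBS and treated for 72 h at 37 °C and 5% CO2. Compounds from a 528-compound library were tested at five concentrations over a 10,000-fold range, and scores were averaged over two replicates.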

Assay [2] relates to Ba/F3 P210-BCR-ABL1 RUNX1-/- (mouse). Put shortly:
as §1

Assay [3] deals with Ba/F3 P210-BCR-ABL1 RUNX1wt/wt control (mouse). Put shortly: as §1

For `CC(C)c1c(C(=O)Nc2ccccc2)c(-c2ccccc2)c(-c2ccc(F)cc2)n1CC[C@@H](O)C[C@@H](O)CC(=O)O` [Atorvastatin], the figures for the drug sensitivity score in assay [1], in assay [2] and in assay [3] were 0.1 ± 0.14, 0.65 ± 0.92 and 0, respectively.
In the same order, the values of `Nc1ccn([C@@H]2O[C@H](CO)[C@@H](O)[C@@H]2O)c(=O)n1` [Cytarabine] are 8.25 ± 4, 12.25 ± 0.071 and 6.25 ± 0.071.
In the same order, the values of `O=C(/C=C\n1cnc(-c2cc(C(F)(F)F)cc(C(F)(F)F)c2)n1)NNc1cnccn1` [Selinexor] are 23 ± 0.99, 24 ± 1.7 and 16.55 ± 0.071.
On the same counts, the results for `O=C(Nc1cccc(Nc2ncc(Br)c(NCCc3cnc[nH]3)n2)c1)N1CCCC1` [BX-912] are 7.25 ± 1.1, 8.9 ± 0.42 and 1.85 ± 0.071.
Take `O=c1ncn2nc(Sc3ccc(F)cc3F)ccc2c1-c1c(Cl)cccc1Cl` [Neflamapimod]: the figures for the drug sensitivity score in assay [1], in assay [2] and in assay [3] were 0.85 ± 1.2, 1.9 ± 0.71 and 0, respectively.
In the same order, the values of `CC[C@]12C=CCN3CC[C@@]4(c5cc([C@@]6(C(=O)OC)C[C@@H]7C[C@@H](C(C)(F)F)CN(Cc8c6[nH]c6ccccc86)C7)c(OC)cc5N(C)[C@H]4[C@@](O)(C(=O)OC)[C@@H]1OC(C)=O)[C@@H]32` [Vinflunine] are 3.95 ± 0.49, 4.4 ± 0.42 and 3.55 ± 0.21.
On the same counts, the results for `C=CC(=O)N1CCC(Oc2cc3c(Nc4ccc(Cl)c(Cl)c4F)ncnc3cc2OC)CC1` [Poziotinib] are 0, 0 and 0.
In the same order, the values of `Cc1cc(F)c(C(=O)Nc2cccc(-c3nncn3C(C)C)n2)cc1-n1cnc(C2CC2)c1` [Selonsertib] are 0, 0 and 0.
For the molecule `CC/C(=C(\c1ccccc1)c1ccc(OCCN(C)C)cc1)c1ccccc1` [Tamoxifen], the drug sensitivity score in assay [1] is 7.5 ± 1.3; in assay [2], 6.2 ± 1.6; in assay [3] it was 3.5 ± 0.28.
In the same order, the values of `Cn1c(Nc2ccc(C(F)(F)F)cc2)nc2cc(Oc3ccnc(-c4ncc(C(F)(F)F)[nH]4)c3)ccc21` [NVP-RAF265] are 0, 2.5 ± 1.8 and 0.
As for `COCCNCc1ccc(-c2cc3nccc(Oc4ccc(NC(=S)NC(=O)Cc5ccc(F)cc5)cc4F)c3s2)nc1` [Glesatinib], the drug sensitivity score stood at 3.55 ± 1.1 in assay [1], 7.4 ± 0.14 in assay [2] and 0 in assay [3].
For `CC(=O)c1c(C)c2cnc(Nc3ccc(N4CCNCC4)cn3)nc2n(C2CCCC2)c1=O` [Palbociclib], the results for the drug sensitivity score in assay [1], in assay [2] and in assay [3] were 8.85 ± 1.1, 11.4 ± 1.3 and 2.25 ± 0.21, respectively.
`O=c1sn(-c2cccc3ccccc23)c(=O)n1Cc1ccccc1` [Tideglusib]: the drug sensitivity score in assay [1], in assay [2] and in assay [3] was 0 in each case.
As to `CN(C)C[C@@H]1CCn2cc(c3ccccc32)C2=C(C(=O)NC2=O)c2cn(c3ccccc23)CCO1` [Ruboxistaurin], the drug sensitivity score in assay [1] was 9.25 ± 2.2; in assay [2], 9.7 ± 0.28; in assay [3], 7.7 ± 0.99.
On the same counts, the results for `CCC(C)(C)C(=O)O[C@H]1C[C@@H](C)C=C2C=C[C@H](C)[C@H](CC[C@@H]3C[C@@H](O)CC(=O)O3)[C@H]21` [Simvastatin] are 0.6 ± 0.85, 0.4 ± 0.42 and 0.05 ± 0.071.
For `C[C@H](Nc1ncnc2[nH]cnc12)c1cc2ccc(F)cc2nc1-c1ccccn1` [AMG319], the drug sensitivity score came to 1.1 ± 1.6 in assay [1], 0.15 ± 0.21 in assay [2] and 0 in assay [3].
Turning to `CN1CCN(C2CCN(C(=O)Nc3cc(Oc4ccc(NC(=O)C5(C(=O)Nc6ccc(F)cc6)CC5)c(F)c4)ccn3)CC2)CC1` [Golvatinib], the drug sensitivity score in assay [1] came out at 1.8 ± 2; in assay [2], 3.95 ± 2; in assay [3] it was 0.
In the same order, the values of `Cc1sc2c(c1C)C(c1ccc(Cl)cc1)=N[C@@H](CC(=O)NCCCCNC(=O)COc1cccc3c1C(=O)N(C1CCC(=O)NC1=O)C3=O)c1nnc(C)n1-2` (some centres not stated) [dBET1] are 19.1 ± 5.4, 18.8 ± 2.1 and 11.3 ± 1.5.
In the same order, the values of `CCN(CC)CCOc1ccc(C(=C(Cl)c2ccccc2)c2ccccc2)cc1` [Clomifene] are 8 ± 1.3, 6.5 ± 0.28 and 6.35 ± 0.49.
In the same order, the values of `COc1cc(OC)c(/C=C/S(=O)(=O)Cc2ccc(OC)c(NCC(=O)O)c2)c(OC)c1` [Rigosertib] are 27.05 ± 0.071, 26.8 ± 1.1 and 15.6 ± 1.4.
Turning to `Cc1ccc(C(=O)N(CCCN)[C@@H](c2oc3cc(Cl)ccc3c(=O)c2Cc2ccccc2)C(C)C)cc1`, the drug sensitivity score was determined as 6.65 ± 4.7 in assay [1], 9.5 ± 6.1 in assay [2] and 1.9 ± 0.14 in assay [3].
On the same counts, the results for `CNC(=O)c1cccc(-c2ccc3c(N4CCOC[C@@H]4C)nc(N4CCOC[C@@H]4C)nc3n2)c1` [Vistusertib] are 16.1 ± 3.8, 18.8 ± 0.35 and 11.
On to `CN(C)CCCOc1ccc(-c2ccc3ncc4c(c3c2)n(C2CCOCC2)c(=O)n4C)cn1` [AZD0156], for which the values for the drug sensitivity score in assay [1], in assay [2] and in assay [3] were 7.6 ± 0.14, 6.8 ± 1.7 and 0, respectively.
On the same counts, the results for `O=C(CCNC(=O)c1ccc(OC(F)(F)F)cc1)N[C@@H]1CCCc2ccccc21` [ML390] are 19.6 ± 0.92, 18.55 ± 0.071 and 12.4 ± 0.49.
On the same counts, the results for `N[C@@H]1CCCN(c2c(/C=C3\SC(=O)NC3=O)cccc2-c2ccccc2)C1` [AZD1208] are 7.05 ± 2.5, 11.8 ± 0.35 and 2.4 ± 0.42.
In the same order, the values of `COc1cc2c(NC3CCN(C(C)C)CC3)nc(N3CCC(F)(F)CC3)nc2cc1OCCCN1CCCC1` [UNC0642] are 6.5 ± 3, 5.35 ± 1.6 and 0.15 ± 0.071.
Consider `Cc1cc(OCc2nnc(SC3CCCC3)n2-c2cccnc2)ccc1-c1ccc(S(C)(=O)=O)cc1` [NMS-873], for which the drug sensitivity score in assay [1] is 14.7 ± 1.1; in assay [2] it was 16.3 ± 1.6; in assay [3], 22.2 ± 0.71.
On to `Cc1cc(C(C)Nc2ccccc2)c2nc(N3CCOCC3)cc(=O)n2c1` (configuration not stated) [TGX-221], for which the drug sensitivity score was 2.4 ± 3.1 in assay [1], 2.7 ± 2.4 in assay [2] and 0 in assay [3].
With `CCC(C)n1ncn(-c2ccc(N3CCN(c4ccc(OCC5COC(Cn6cncn6)(c6ccc(Cl)cc6Cl)O5)cc4)CC3)cc2)c1=O` (configuration not stated) [Itraconazole], the drug sensitivity score in assay [1] was 4.6 ± 6.5; in assay [2], 3.8 ± 5.4; in assay [3], 7.1 ± 1.3.
In the same order, the values of `Cc1cc(Nc2cc(N3CCN(C)CC3)nc(/C=C/c3ccccc3)n2)n[nH]1` [ENMD-2076] are 8.45 ± 0.35, 9.4 ± 0.28 and 5.5 ± 0.85.
On the same counts, the results for `O=C(Nc1ccc(OC(F)(F)Cl)cc1)c1cnc(N2CC[C@@H](O)C2)c(-c2cc[nH]n2)c1` [Asciminib] are 10.7 ± 4.5, 31.85 ± 0.071 and 18.8 ± 0.71.
On the same counts, the results for `CC(C)c1cc(-c2n[nH]c(=O)n2-c2ccc3c(ccn3C)c2)c(O)cc1O` [Ganetespib] are 23.6 ± 2.2, 24.8 ± 3.4 and 19.1 ± 0.21.
As for `CCOc1ccccc1-n1c(C(C)N2CCN(C(=O)COc3ccc(Cl)cc3)CC2)nc2ccccc2c1=O` (configuration not stated) [Erastin], the drug sensitivity score in assay [1] was 8.45 ± 5.9; in assay [2] it was 11.2 ± 1.1; in assay [3], 0.
In the same order, the values of `CCS(=O)(=O)Nc1ccc(Oc2ccc(F)cc2F)c(-c2cn(C)c(=O)c3[nH]ccc23)c1` [Mivebresib] are 41 ± 2, 41.35 ± 0.21 and 34 ± 1.3.
On the same counts, the results for `C[C@H]1CNCCCN1S(=O)(=O)c1cccc2cncc(F)c12` [Ripasudil] are 0, 0 and 0.
On the same counts, the results for `CC(C)(C)Cn1c(N)nc2ccc(-c3[nH]c(C(C)(C)C)nc3-c3ccc(F)cc3)nc21` [Ralimetinib] are 8 ± 4.2, 9.6 ± 3.2 and 0.7 ± 0.99.
In the case of `NCCNc1ccc(NCCN)c2c1C(=O)c1ccncc1C2=O` [Pixantrone], the drug sensitivity score in assay [1] came to 2.45 ± 1.1; in assay [2], 1.95 ± 1.3; in assay [3], 0.
In the same order, the values of `CC[C@H](Nc1ncnc2[nH]cnc12)c1nc2cccc(F)c2c(=O)n1-c1ccccc1` [Idelalisib] are 2.3 ± 2.5, 4.7 ± 2.5 and 0.
In the same order, the values of `Cn1cnc2c(F)c(Nc3ccc(Br)cc3F)c(C(=O)NOCCO)cc21` [Binimetinib] are 0.3 ± 0.42, 3.3 ± 0.42 and 0.
